Measured values published in patent publication US6169181A, “Compounds useful to treat retroviral infections” (Pharmacia & Upjohn Company, priority 1998, dated 2001).
Read-outs that look alike come from different tables or passages of the source.

What was measured:
HIV-1 protease [1] = molecular target: T1, HIV-1 protease (Human immunodeficiency virus type 1 group M subtype B, UniProt P04585); assay: biochemical
In short: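 Biotinylated, FITC-labelled peptide substrate cleaved in 0.1 M sodium acetate pH 5.5, 1.0 M NaCl, 0.05% NP-40, room temperature. Filtered labelled product read by fluorescence; nonlinear least-squares fit.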

HIV-1 protease [2] = molecular target: T1, HIV-1 protease; assay: biochemical; details: for PROTEASE % INHIB.: Table II, enzyme HIV-1; for inhibition at 0.123 µM / inhibition at 0.37 µM / inhibition at 1.1 µM / inhibition at 3.3 µM / inhibition at 10 µM / inhibition at 30 µM: read-out: Protease % Inhib
In short: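 Percent inhibition came from fluorescence of FITC-tagged cleavage product, separated by filtration from uncleaved substrate captured on streptavidin-coated beads. The enzyme (10 μl of 0.1 μM) and compound acted on a biotin/FITC dual-labelled peptide for one hour at room temperature in the dark. The reaction ran in 0.1 M sodium acetate, pH 5.5, with 1.0 M NaCl and 0.05% NP-40.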

[3] = Table II, enzyme HIV-1, read-out: FITC KI
[4] = Table I, read-out: HIV Protease FITC Assay Ki
[5] = read-out: HIV Protease FITC Assay Ki

Compound	Ki (HIV-1 protease [1]; [4]) [nM]	inhibition at 0.123 µM (HIV-1 protease [2]; Table I, Dose 0.123 μM) [%]	inhibition at 0.37 µM (HIV-1 protease [2]; Table I, Dose 0.370 μM) [%]	inhibition at 1.1 µM (HIV-1 protease [2]; Table I, Dose 1.100 μM) [%]	inhibition at 3.3 µM (HIV-1 protease [2]; Table I, Dose 3.300 μM) [%]	inhibition at 10 µM (HIV-1 protease [2]; Table I, Dose 10.000 μM) [%]	inhibition at 30 µM (HIV-1 protease [2]; Table I, Dose 30.000 μM) [%]	also measured
CCC[C@@]1(CCc2ccc(F)cc2)CC(O)=C([C@H](c2cccc(NS(=O)(=O)c3cn(C)cn3)c2)C(C)(C)C)C(=O)O1 (single isomer, unassigned) [Example 351, N-[3-{1(S or R)-(4-Hydroxy-5,6-dihydro-2-oxo-6(R or S)-(2-(4-fluorophenyl)ethyl)-6-propyl-2H-pyran-3-yl)-2,2-dimethyl-propyl}phenyl]-1-methyl-1H-imidazole-4-sulfonamide]								Ki (HIV-1 protease [1]; [3]): 558 nM; PROTEASE % INHIB. (HIV-1 protease [2]; DOSE 0.123 (unit not given)): < 10%; PROTEASE % INHIB. (HIV-1 protease [2]; DOSE 0.370 (unit not given)): < 10%; PROTEASE % INHIB. (HIV-1 protease [2]; DOSE 1.100 (unit not given)): 25.4%; PROTEASE % INHIB. (HIV-1 protease [2]; DOSE 3.300 (unit not given)): 55.11%; PROTEASE % INHIB. (HIV-1 protease [2]; DOSE 10.000 (unit not given)): 78.53%; PROTEASE % INHIB. (HIV-1 protease [2]; DOSE 30.000 (unit not given)): 90.55%
CCC[C@]1(CCc2ccc(F)cc2)CC(O)=C([C@H](c2cccc(NS(=O)(=O)c3cn(C)cn3)c2)C(C)(C)C)C(=O)O1 (single isomer, unassigned) [Example 352, N-[3-{1(S or R)-(4-Hydroxy-5,6-dihydro-2-oxo-6(S or R)-(2-(4-fluorophenyl)ethyl)-6-propyl-2H-pyran-3-yl)-2,2-dimethyl-propyl}phenyl]-1-methyl-1H-imidazole-4-sulfonamide]								Ki (HIV-1 protease [1]; [3]): 168 nM; PROTEASE % INHIB. (HIV-1 protease [2]; DOSE 0.123 (unit not given)): < 10%; PROTEASE % INHIB. (HIV-1 protease [2]; DOSE 0.370 (unit not given)): 25.31%; PROTEASE % INHIB. (HIV-1 protease [2]; DOSE 1.100 (unit not given)): 47.78%; PROTEASE % INHIB. (HIV-1 protease [2]; DOSE 3.300 (unit not given)): 74.99%; PROTEASE % INHIB. (HIV-1 protease [2]; DOSE 10.000 (unit not given)): 85.86%; PROTEASE % INHIB. (HIV-1 protease [2]; DOSE 30.000 (unit not given)): 87.82%
CC(C)(C)C(C1=C(O)CC(CCc2ccccc2)(CCc2ccccc2)OC1=O)c1cccc(NS(=O)(=O)c2ccc(N)cn2)c1 (single isomer, unassigned) [Example 355, N-[3-{1(R or S)-(4-Hydroxy-5,6-dihydro-2-oxo-6,6-bis(2-phenylethyl)-2H-pyran-3-yl)-2,2-dimethylpropyl}phenyl]-5-aminopyridine-2-sulfonamide]								Ki (HIV-1 protease [1]; [3]): 700 nM; PROTEASE % INHIB. (HIV-1 protease [2]; DOSE 0.123 (unit not given)): < 10%; PROTEASE % INHIB. (HIV-1 protease [2]; DOSE 0.370 (unit not given)): < 10%; PROTEASE % INHIB. (HIV-1 protease [2]; DOSE 1.100 (unit not given)): < 10%; PROTEASE % INHIB. (HIV-1 protease [2]; DOSE 3.300 (unit not given)): 20.72%; PROTEASE % INHIB. (HIV-1 protease [2]; DOSE 10.000 (unit not given)): 46.66%; PROTEASE % INHIB. (HIV-1 protease [2]; DOSE 30.000 (unit not given)): 67.82%
CCCC1CCCCCc2c1oc(=O)c(C(c1cccc(NS(=O)(=O)c3ccccc3)c1)C1CC1)c2O (centres unmarked) [Example 1, N-[3-[cyclopropyl(5,6,7,8,9,10-hexahydro-4-hydroxy-2-oxo-10-propyl-2H-cycloocta[b]pyran-3-yl)methyl]phenyl]benzenesulfonamide]	15	75.4	87.3	97.1	96.8	99.7	97.4	
O=c1oc2c(c(O)c1C(c1cccc(CS(=O)(=O)c3ccccc3)c1)C1CC1)CCCCCC2 (centres unmarked) [Example 10, 3-[Cyclopropyl[3-[(phenylsulfonyl)methyl]phenyl]methyl]-5,6,7,8,9,10-hexahydro-4-hydroxy-2H-Cycloocta[b]pyran-2-one]								Ki (HIV-1 protease [1]; [5]): 5.71 nM; inhibition at 0.123 µM (HIV-1 protease [2]): 102%; inhibition at 0.37 µM (HIV-1 protease [2]): 112%; inhibition at 1.1 µM (HIV-1 protease [2]): 116%; inhibition at 3.3 µM (HIV-1 protease [2]): 119%; inhibition at 10 µM (HIV-1 protease [2]): 129%; inhibition at 30 µM (HIV-1 protease [2]): 130%
N#Cc1ccc(S(=O)(=O)Cc2cccc(C(c3c(O)c4c(oc3=O)CCCCCC4)C3CC3)c2)cc1 (centres unmarked) [Example 11, 3-[cyclopropyl[3-[(4-cyanophenylsulfonyl)methyl]phenyl]methyl]-5,6,7,8,9,10-hexahydro-4-hydroxy-2H-cycloocta[b]pyran-2-one]	1.9	78.9	95.3	100	95.1	99.7	104	
O=c1oc2c(c(O)c1C(c1cccc(CS(=O)(=O)c3ccc(F)cc3)c1)C1CC1)CCCCCC2 (centres unmarked) [Example 12, 3-[cyclopropyl[3-[(4-fluorophenylsulfonyl)methyl]phenyl]methyl]-5,6,7,8,9,10-hexahydro-4-hydroxy-2H-cycloocta[b]pyran-2-one]	2.15	75.7	87.2	91.8	91.1	94.7	95.7	
Cc1ccc(S(=O)(=O)Cc2cccc(C(c3c(O)c4c(oc3=O)CCCCCC4)C3CC3)c2)cc1 (centres unmarked) [Example 13, 3-[cyclopropyl[3-[(4-methylphenylsulfonyl)methyl]phenyl]methyl]-5,6,7,8,9,10-hexahydro-4-hydroxy-2H-cycloocta[b]pyran-2-one]	4.15	68.9	88.1	94	95.5	98.6	104	
O=C(O)c1ccc(S(=O)(=O)Cc2cccc(C(c3c(O)c4c(oc3=O)CCCCCC4)C3CC3)c2)cc1 (centres unmarked) [Example 14, 3-[cyclopropyl[3-[(4-carboxyphenylsulfonyl)methyl]phenyl]methyl]-5,6,7,8,9,10-hexahydro-4-hydroxy-2H-cycloocta[b]pyran-2-one]	6.88	65.7	88	96.8	96.6	102	106	
Cn1ccnc1S(=O)(=O)Cc1cccc(C(c2c(O)c3c(oc2=O)CCCCCC3)C2CC2)c1 (centres unmarked) [Example 15, 3-[cyclopropyl[3-[(2-(1-methylimidazoyl)sulfonyl)methyl]phenyl]methyl]-5,6,7,8,9,10-hexahydro-4-hydroxy-2H-cycloocta[b]pyran-2-one]	2.8	77.6	88.5	92.4	94	95.8	99.2	
CCCC1(CCc2ccccc2)CC(O)=C(C(CC)c2cccc(NS(=O)(=O)c3ccc(C#N)cc3)c2)C(=O)O1 (centres unmarked) [Example 40, 4-Cyano-N-[3-[1-(4-hydroxy-2-oxo-6-phenethyl-6-propyl-5,6-dihydro-2H-pyran-3-yl)-propyl]-phenyl]-benzenesulfonamide]	10.8	59.6	102	98.7	105	88.7	72.7	
CCCC1(CCc2ccccc2)CC(O)=C(C(CC)c2cccc(NS(=O)(=O)c3cn(C)cn3)c2)C(=O)O1 (centres unmarked) [Example 41, N-[3-[1-(4-hydroxy-2-oxo-6-phenethyl-6-propyl-5,6-dihydro-2H-pyran-3-yl)-propyl]-phenyl]-1-methyl-1H-imidazole-4-sulfonamide]								Ki (HIV-1 protease [1]; [5]): 3.17 nM; inhibition at 0.123 µM (HIV-1 protease [2]): 103%; inhibition at 0.37 µM (HIV-1 protease [2]): 102%; inhibition at 1.1 µM (HIV-1 protease [2]): 104%; inhibition at 3.3 µM (HIV-1 protease [2]): 101%; inhibition at 10 µM (HIV-1 protease [2]): 85.9%; inhibition at 30 µM (HIV-1 protease [2]): 72.8%
CCCC1(CCc2ccccc2)CC(O)=C(C(CC)c2cccc(NS(=O)(=O)c3cccc4cccnc34)c2)C(=O)O1 (centres unmarked) [Example 42, N-[3-[1-(4-hydroxy-2-oxo-6-phenethyl-6-propyl-5,6-dihydro-2H-pyran-3-yl)-propyl]-phenyl]-8-quinolinesulfonamide]								Ki (HIV-1 protease [1]; [5]): 3.1 nM; inhibition at 0.123 µM (HIV-1 protease [2]): 86.2%; inhibition at 0.37 µM (HIV-1 protease [2]): 103%; inhibition at 1.1 µM (HIV-1 protease [2]): 98.3%; inhibition at 3.3 µM (HIV-1 protease [2]): 102%; inhibition at 10 µM (HIV-1 protease [2]): 91.4%; inhibition at 30 µM (HIV-1 protease [2]): 76.1%
CCCC1(CCC)CC(O)=C(C(CC)c2cccc(NS(=O)(=O)c3cccc4cccnc34)c2)C(=O)O1 (centres unmarked) [Example 43, N-[3-[1-(4-hydroxy-2-oxo-6,6-dipropyl-5,6-dihydro-2H-pyran-3-yl)-propyl]-phenyl]-8-quinolinesulfonamide]	3.65	85.6	99	95.7	96.7	102	85.6	
CCCC1(CCC)CC(O)=C(C(CC)c2cccc(NS(=O)(=O)c3cn(C)cn3)c2)C(=O)O1 (centres unmarked) [Example 44, N-[3-[1-(4-hydroxy-2-oxo-6,6-dipropyl-5,6-dihydro-2H-pyran-3-yl)-propyl]-phenyi]-1-methyl-1H-imidazolesulfonamide]	1.8	98.4	114	120	113	102	80	
CCCC1(CCC)CC(O)=C(C(CC)c2cccc(NS(=O)(=O)c3ccc(F)cc3)c2)C(=O)O1 (centres unmarked) [Example 45, 4-Fluoro-N-[3-[1-(4-hydroxy-2-oxo-6,6-dipropyl-5,6-dihydro-2H-pyran-3-yl)-propyl]-phenyl]-benzenesulfonamide]	4.78	82.2	94.4	101	103	89.8	67.5	
CCCC1(CCC)CC(O)=C(C(CC)c2cccc(NS(=O)(=O)c3ccc(C#N)cc3)c2)C(=O)O1 (centres unmarked) [Example 46, 4-Cyano-N-[3-[1-(4-hydroxy-2-oxo-6,6-dipropyl-5,6-dihydro-2H-pyran-3-yl)-propyl]-phenyl]-benzenesulfonamide]	2.92	85.9	99.2	103	97.6	91.5	74.1	
